Test results reported in paper PMC6611213, “Key Features Relevant to Select Antigens and TCR From the MHC-Mismatched Repertoire to Treat Cancer” (Frontiers in Immunology, 2019).

Legend:
[1] = system: HLA-B7 monomers; test: UV-mediated peptide exchange, B2M ELISA; format: binding, human; settings: for Stability after UV-peptide exchange, V50: Pooled values of at least three independent experiments, 0–200 μM peptide, UV 366 nm, B2M ELISA, Boltzmann fit; for HLA-stabilization potential: UV-peptide exchange, titrated peptide
Procedure: Biotinylated HLA-B7 monomers loaded with the UV-cleavable epitope AARG(J)TLAM were created as previously described ([33]). Peptide-HLA stability was measured using the protocol on the basis of Rodenko et al. ([34]). In brief, HLA-B7 monomers loaded with the UV-sensitive peptide were exposed to UV light (366 nm) in the presence of graded amounts (0–200 μM) of MPO peptides. Afterward 1:10 dilutions of the UV-exchanged monomers were adhered via streptavidin to the bottom of a 96-well plate (F96 maxisorp nunc-immune plate, Thermo scientific) and a beta-2-microglobulin ELISA was performed. The OD measurements were performed on a Tecan Sunrise multi-well-reader using Magellan software (version 7.2).
(§1) An E/T ratio of 1:1 was used. IFN-γ secretion of the supernatants after co-cultivation was measured by IFN-γ ELISA. […] (B) Beta-2-microglobulin (B2M)-ELISA of UV-mediated peptide exchanged HLA-B7 monomers. V50 values of a Boltzmann fitting for each MPO-peptide was determined by the optical density of B2M after degraded amounts of MPO-peptides were used for HLA-stabilization. […] (C) Pooled results of (B) for MPO5 (n = 4), MPO2 (n = 4), and MPO2+L1 (n = 3). Significance is calculated by Mann-Whitney Test: *p = 0.0286. TEXT PRINTED IN THE PICTURE: (B) MPO5: V50 = -5,204 | (B) MPO2: V50 = -4,610 | (B) MPO2+L1: V50 = -4,143
To verify the stability results of all three MPO-peptides experimentally, we performed HLA-B7 UV-peptide exchange assays with titrated amounts of peptide added to a constant concentration of HLA-B7 monomers bound to a UV-sensitive peptide. […] Thus, our results oppose the results of the NetMHC stability prediction. As a second experiment, we performed thermal shift assays for the MPO peptides to characterize their potential to prevent denaturation of the HLA-complex with ascending temperature (Supplementary Figure 3A; Table 1).

[2] = system: HLA-B7+ LCL1 cell line; test: IFN-γ release by TCRF5.4-transduced PBMC to peptide-pulsed LCL1; format: cell-based, human; settings: peptide-pulsed LCL1, E/T 1:1, ELISA, triplicates (n = 2)
Procedure: as §1

[3] = system: HLA-B7 monomers; test: Thermal shift assay (DSF) of p-MHC complexes; format: binding, human; settings: for Thermal stability V50: 2 µM monomer, 150 mM NaCl, 10 mM HEPES pH 7.4, 3 mM EDTA, SYPRO orange, 21°C to 95°C, mean of quadruplicates (n=2); for thermal V50: Boltzmann fitting, rounded
Procedure: (§2) (A) Thermal shift assay of MPO-peptides in comparison to pp65 and MPO2+L1. Boltzmann fitting was used to determine V50 values (half-maximal denaturation) for each p-MHC complex after gradual heating from 21°C to 95°C. The mean of quadruplicates is shown (n=2). (B) Measurement of kinetic stability of indicated p-MHC complexes in comparison to pp65 and MPO2+L1 at constant temperature of 37°C. For the determination of half-maximal decay of p-MHC complexes, the slowest constant rates were used after fitting the fluorescence values with an exponential two-phase decay equation. The mean of quadruplicates is shown (n=2). (A,B) The fluorescence was measured by monitoring the intensity of SYPRO orange protein dye binding to hydrophobic core regions of unfolded p-MHC-complexes. (C) Occurrence of the MPO2 and MPO5 peptides on the surface of indicated AML cell lines with endogenous HLA-B7 expression using the heavy labelled Leu7 counterpart for detection. Logarithmic intensities of MPO peptide surface presentation for MPO peptides are shown in duplicates. MPO5 peptides are depicted in blue, MPO2 peptides are depicted in green (n=2).
(§3) For differential scanning fluorimetry (DSF), i.e. thermal shift assay and kinetic stability measurement, MPO2-, MPO2+L1-, MPO5- or pp65(417-426) peptide exchanged HLA-B7 monomers were used in a concentration of 2µM and analyzed on a StepOnePlus RT-PCR instrument (Applied Biosystems, Foster City, CA, USA), respectively. Samples were measured in a final volume of 20µl in MicroAmp^R Fast Optical 96-well reaction plates (Applied Biosystems) containing 150mM NaCl, 10mM HEPES (pH 7.4), 3mM EDTA and 10x SYPRO orange (Thermo Fisher Scientific) as described previously (Hellman et al., 2016). Analysis was done following the recommendations described elsewhere (Niesen et al., 2007) using the Microsoft Excel-based tool “DSF Analysis v3.0.2” available under the following link (ftp://ftp.sgc.ox.ac.uk/pub/biophysics). For accurate ﬁtting and calculation of V50-values, the Boltzmann equation was performed using GraphPad Prism (version 7.04, San Diego, USA). The kinetic stability was analyzed at constant 37°C and fluorescence was measured every 5 minutes. The fluorescent data were fit to a two-phase decay function and slowest rates for half-lives were calculated using GraphPad Prism (version 7.04, San Diego, USA).

[4] = system: HLA-B7 monomers; test: Kinetic stability of p-MHC complexes at 37°C (DSF); format: binding, human; settings: DSF at constant 37°C; for Half-life 37°C: pH 7.4, SYPRO orange, two-phase decay, slowest rate, mean of quadruplicates (n=2)
Procedure: as §2, §3

[5] = system: HL60, ML2, NB4 and SiG-M5 AML cell lines; test: Cytokine secretion by TCR-transduced CD8+ T cells to AML cell lines; format: cell-based, human; settings: AML cell lines pulsed with MPO2 or MPO5
Procedure: The cytotoxic reactivity of T cells was tested by flow cytometry making use of changes in signal of the HLA-B7eGFP-transgenic target cells during co-cultivation for different time periods and effector to target ratios. For relative quantification of cytotoxicity, AccuCheck counting beads were used according to the manufacturer's protocol (Thermo Fisher Scientific) and the results were normalized to either non-TCR-transduced T cells or irrelevant T-cell clones. The supernatants of the co-cultivation were used to measure IFN-γ by ELISA (BD) or GM-CSF, IFN-γ, and lL-2 multiplexed by flow cytometry (Miltenyi Biotec) according to the manufacturer's instructions. […] If not stated otherwise, the effector to target ratio was set to 1:1 for the co-incubation assays using 20,000 cells in each fraction.
Half-maximal IFN-γ release was calculated using logarithmic dose-response fitting algorithm with variable slope (EC50) of GraphPad Prism. Mean ± SD of triplicates of one representative experiment are shown (n = 6). […] 10.000 effector cells were used in a ratio of 1:1. Standard deviations of the mean of triplicates are shown (n = 4). (Gi−iv) Cytokine secretion (GM-CSF, IFN-γ, and IL-2) measured by flow cytometry based multiplex analysis in response to selected AML cell lines is shown in triplicates either unpulsed or additionally pulsed with MPO2 or MPO5.

[6] = system: AML cell lines; test: Targeted MS of surface-presented peptides; parameters: species or system human; settings: targeted MS with heavy labelled peptides; MPO2 compared to MPO5 (n=2)
Procedure: as §2, with “MPO5 peptides are depicted in blue, MPO2 peptides are depicted in green (n=2).” left out
The MPO2 and MPO5 ligands were identified using an immunopeptidomic approach as previously described (Klar et al., 2014). For the targeted identification and relative quantification of both peptides, HLA-I peptides were purified from 5x10^8 cells of each cell line as previously described (Bassani-Sternberg et al., 2016). […]

Sequence: LTPAQLNVL [MPO2+L1]
- Stability after UV-peptide exchange, V50 [1]: −3.728 log10 M
- HLA-stabilization potential [1]: lowest potential for HLA-stabilization
- IFN-γ secretion by TCRF5.4-transduced T cells [2]: detected IFN-γ secretion
- Thermal stability V50 [3]: 44.0 °C
- thermal V50 [3]: 44 °C
- Half-life 37°C [4]: 2.9 h

Sequence: NPRWDGERL [MPO5]
- effect of additional peptide pulsing on cytokine secretion [5]: did not have a major impact on cytokine secretion
- Stability after UV-peptide exchange, V50 [1]: −5.535 log10 M
- HLA-stabilization potential [1]: almost one log increased potential to rescue the HLA-B7 molecule
- Thermal stability V50 [3]: 46.4 °C
- thermal V50 [3]: 46 °C
- Half-life (decay of HLA-complexes) 37°C [4]: 4.1 h
- Half-life 37°C [4]: 4.1 h

Sequence: TPAQLNVL [MPO2]
- effect of additional peptide pulsing on cytokine secretion [5]: these differences could be compensated by additional MPO2 peptide pulsing
- Stability after UV-peptide exchange, V50 [1]: −4.671 log10 M
- surface presentation on AML cell lines [6]: markedly lower presented on the surface of all AML cells lines compared to MPO5
- Thermal stability V50 [3]: 46.3 °C
- thermal V50 [3]: 46 °C
- Half-life (decay of HLA-complexes) 37°C [4]: 3.5 h
- Half-life 37°C [4]: 3.5 h

Sequence: TPRVTGGGAM [pp65, pp65(417-426) control peptide […], reference compound]
- Thermal stability V50 [3]: 50.0 °C
- thermal V50 [3]: 50 °C
- Half-life 37°C [4]: 5.6 h
